Assays:
MOLT-4 = assay: Growth inhibition of human MOLT4 cells incubated for 48 hrs by sulforhodamine B assay; type: functional, cell-based; conditions: MOLT-4, 48 h
SF-268 [1] = assay: Growth inhibition of human SF268 cells incubated for 48 hrs by sulforhodamine B assay; type: functional, cell-based; conditions: SF-268, 48 h
SNB-75 = assay: Growth inhibition of human SNB75 cells assessed as cell growth at 0.01 uM incubated for 48 hrs by sulforhodamine B assay relative to control; type: functional; conditions: SNB-75, 48 h, read-out: Activity
SK-MEL-2 [2] = assay: Growth inhibition of human SK-MEL-2 cells assessed as cell growth at 10 uM incubated for 48 hrs by sulforhodamine B assay relative to control; type: functional; conditions: SK-MEL-2, 48 h, read-out: Activity
RXF 393 = assay: Growth inhibition of human RXF393 cells assessed as cell growth at 1 uM incubated for 48 hrs by sulforhodamine B assay relative to control; type: functional; conditions: RXF 393, 48 h, read-out: Activity
SK-OV-3 = assay: Growth inhibition of human SKOV3 cells assessed as cell growth at 1 uM incubated for 48 hrs by sulforhodamine B assay relative to control; type: functional; conditions: SK-OV-3, 48 h, read-out: Activity
U-251 = assay: Growth inhibition of human U251 cells assessed as cell growth at 0.01 uM incubated for 48 hrs by sulforhodamine B assay relative to control; type: functional; conditions: U-251, 48 h, read-out: Activity
SF-268 [3] = assay: Growth inhibition of human SF268 cells assessed as cell growth at 1 uM incubated for 48 hrs by sulforhodamine B assay relative to control; type: functional; conditions: SF-268, 48 h, read-out: Activity
RPMI-8226 = assay: Growth inhibition of human RPMI8226 cells assessed as cell growth at 1 uM incubated for 48 hrs by sulforhodamine B assay relative to control; type: functional; conditions: RPMI-8226, 48 h, read-out: Activity
Hs-578T [4] = assay: Growth inhibition of human Hs578T cells assessed as cell growth at 0.01 uM incubated for 48 hrs by sulforhodamine B assay relative to control; type: functional; conditions: read-out: Activity
HOP-62 = assay: Growth inhibition of human HOP62 cells assessed as cell growth at 1 uM incubated for 48 hrs by sulforhodamine B assay relative to control; type: functional; conditions: HOP-62, 48 h, read-out: Activity
A549 [5] = assay: Growth inhibition of human A549/ATCC cells assessed as cell growth at 0.1 uM incubated for 48 hrs by sulforhodamine B assay relative to control; type: functional; conditions: A549, 48 h, read-out: Activity
A549 [6] = assay: Growth inhibition of human A549/ATCC cells assessed as cell growth at 100 uM incubated for 48 hrs by sulforhodamine B assay relative to control; type: functional; conditions: A549, 48 h, read-out: Activity
CCRF-CEM = assay: Growth inhibition of human CCRF-CEM cells assessed as cell growth at 1 uM incubated for 48 hrs by sulforhodamine B assay relative to control; type: functional; conditions: read-out: Activity
Hs-578T [7] = assay: Growth inhibition of human Hs578T cells incubated for 48 hrs by sulforhodamine B assay; type: functional, cell-based
K562 = assay: Growth inhibition of human K562 cells assessed as cell growth at 0.1 uM incubated for 48 hrs by sulforhodamine B assay relative to control; type: functional; conditions: K562, 48 h, read-out: Activity
COLO 205 = assay: Growth inhibition of human COLO205 cells assessed as cell growth at 0.01 uM incubated for 48 hrs by sulforhodamine B assay relative to control; type: functional; conditions: COLO 205, 48 h, read-out: Activity
SNB-19 = assay: Growth inhibition of human SNB19 cells assessed as cell growth at 100 uM incubated for 48 hrs by sulforhodamine B assay relative to control; type: functional; conditions: SNB-19, 48 h, read-out: Activity
OVCAR-8 = assay: Growth inhibition of human OVCAR8 cells assessed as cell growth at 1 uM incubated for 48 hrs by sulforhodamine B assay relative to control; type: functional; conditions: OVCAR-8, 48 h, read-out: Activity
UACC-257 = assay: Growth inhibition of human UACC257 cells assessed as cell growth at 1 uM incubated for 48 hrs by sulforhodamine B assay relative to control; type: functional; conditions: UACC-257, 48 h, read-out: Activity
NCI-H23 = assay: Growth inhibition of human NCI-H23 cells assessed as cell growth at 0.1 uM incubated for 48 hrs by sulforhodamine B assay relative to control; type: functional; conditions: NCI-H23, 48 h, read-out: Activity
Hs-578T [8] = assay: Growth inhibition of human Hs578T cells assessed as cell growth at 100 uM incubated for 48 hrs by sulforhodamine B assay relative to control; type: functional; conditions: read-out: Activity
HT-29 = assay: Growth inhibition of human HT-29 cells incubated for 48 hrs by sulforhodamine B assay; type: functional, cell-based; conditions: HT-29, 48 h
A498 = assay: Growth inhibition of human A498 cells assessed as cell growth at 1 uM incubated for 48 hrs by sulforhodamine B assay relative to control; type: functional; conditions: A498, 48 h, read-out: Activity
SK-MEL-2 [9] = assay: Growth inhibition of human SK-MEL-2 cells incubated for 48 hrs by sulforhodamine B assay; type: functional, cell-based; conditions: SK-MEL-2, 48 h
MDA-MB-435 = assay: Growth inhibition of human MDA-MB-435 cells incubated for 48 hrs by sulforhodamine B assay; type: functional, cell-based; conditions: MDA-MB-435, 48 h
NCI-H226 = assay: Growth inhibition of human NCI-H226 cells incubated for 48 hrs by sulforhodamine B assay; type: functional, cell-based; conditions: NCI-H226, 48 h
[10] = read-out: LC50 (the source's name)
[11] = read-out: pLC50 (the source's name) (converted)

## O=C(Nc1cccc(-n2cc(-c3ccncc3)c(-c3cc(O)cc(Cl)c3)n2)c1)c1cc(C(F)(F)F)cc(C(F)(F)F)c1
MOLT-4; read-out: GI50
  GI50: 2.38 µM
MOLT-4; [10]
  CC50: > 100 µM
MOLT-4; read-out: TGI
  TGI: > 100 µM
MOLT-4; read-out: pGI50 (converted)
  GI50: 2.4 µM
MOLT-4; [11]
  CC50: > 100 µM
MOLT-4; read-out: pTGI (converted)
  TGI: > 100 µM
SF-268 [1]; read-out: GI50
  GI50: 6.38 µM
SF-268 [1]; [10]
  CC50: > 100 µM
SF-268 [1]; read-out: TGI
  TGI: > 100 µM
SF-268 [1]; read-out: pGI50 (converted)
  GI50: 6.46 µM
SF-268 [1]; [11]
  CC50: > 100 µM
SF-268 [1]; read-out: pTGI (converted)
  TGI: > 100 µM
SNB-75
  growth at 0.01 µM: 58%
SK-MEL-2 [2]
  growth at 10 µM: 57.8%
RXF 393
  growth at 1 µM: 78%
SK-OV-3
  growth at 1 µM: 100%
U-251
  growth at 0.01 µM: 96%
SF-268 [3]
  growth at 1 µM: 94%
RPMI-8226
  growth at 1 µM: 53%
Hs-578T [4]
  growth at 0.01 µM: 93%
HOP-62
  growth at 1 µM: 100%
A549 [5]
  growth at 0.1 µM: 95%
A549 [6]
  growth at 100 µM: 4%
CCRF-CEM
  growth at 1 µM: 56%
Hs-578T [7]; read-out: GI50
  GI50: 6.38 µM
Hs-578T [7]; [10]
  CC50: > 100 µM
Hs-578T [7]; read-out: TGI
  TGI: > 100 µM
Hs-578T [7]; read-out: pGI50 (converted)
  GI50: 6.31 µM
Hs-578T [7]; [11]
  CC50: > 100 µM
Hs-578T [7]; read-out: pTGI (converted)
  TGI: > 100 µM
K562
  growth at 0.1 µM: 89%
COLO 205
  growth at 0.01 µM: 102%
SNB-19
  growth at 100 µM: 34%
OVCAR-8
  growth at 1 µM: 91%
UACC-257
  growth at 1 µM: 92%
NCI-H23
  growth at 0.1 µM: 95%
Hs-578T [8]
  growth at 100 µM: 34%
HT-29; read-out: GI50
  GI50: 2.5 µM
HT-29; [10]
  CC50: > 100 µM
HT-29; read-out: TGI
  TGI: 37.7 µM
HT-29; read-out: pGI50 (converted)
  GI50: 2.51 µM
HT-29; [11]
  CC50: > 100 µM
HT-29; read-out: pTGI (converted)
  TGI: 38 µM
A498
  growth at 1 µM: 78%
SK-MEL-2 [9]; read-out: GI50
  GI50: 3.28 µM
SK-MEL-2 [9]; [10]
  CC50: > 100 µM
SK-MEL-2 [9]; read-out: TGI
  TGI: 95.1 µM
SK-MEL-2 [9]; read-out: pGI50 (converted)
  GI50: 3.31 µM
SK-MEL-2 [9]; [11]
  CC50: > 100 µM
SK-MEL-2 [9]; read-out: pTGI (converted)
  TGI: 9.55 µM
MDA-MB-435; read-out: GI50
  GI50: 3.18 µM
MDA-MB-435; read-out: LC50
  LC50: > 100 µM
MDA-MB-435; read-out: TGI
  TGI: > 100 µM
MDA-MB-435; read-out: pGI50 (converted)
  GI50: 3.16 µM
MDA-MB-435; read-out: pLC50 (converted)
  LC50: > 100 µM
MDA-MB-435; read-out: pTGI (converted)
  TGI: > 100 µM
NCI-H226; read-out: GI50
  GI50: 1.51 µM
NCI-H226; read-out: LC50
  LC50: > 100 µM
NCI-H226; read-out: TGI
  TGI: > 100 µM
NCI-H226; read-out: pGI50 (converted)
  GI50: 16.2 µM
NCI-H226; read-out: pLC50 (converted)
  LC50: > 100 µM
NCI-H226; read-out: pTGI (converted)
  TGI: > 100 µM

Reference: ChEMBL document CHEMBL4308841, “Synthesis, in vitro antiproliferative activity, and kinase inhibitory effects of pyrazole-containing diarylureas and diarylamides” (Eur J Med Chem, 2018)
